Ends that are not written are not given here.
Tests used:
[1] = target: DPP-IV (Homo sapiens, UniProt P27487); assay: Degradation of GIP and Glu3-substituted GIP analogs by DPP-IV (HPLC); assay type: in vitro ADME; details: for half-life at 2 μm: DPP-IV enzyme (5 mU) in buffer, pH 7.8, incubation with DPP-IV, unit not given (time points in hrs), read-out: Estimated Half-Life (converted); for Intact Peptide Remaining (%) 0 hrs. / remaining at 2 h, 2 μm / remaining at 4 h, 2 μm / remaining at 8 h, 2 μm: incubation with DPP-IV (5 mU), 37°C; for Intact Peptide Remaining (%) 0 hrs.: pH 7.8, 0 hrs; for remaining at 2 h, 2 μm / remaining at 4 h, 2 μm / remaining at 8 h, 2 μm: isolated DPP-IV enzyme (5 mU); for remaining at 2 h, 2 μm: pH 7.8, 2 hrs, read-out: Intact Peptide Remaining (%) 2 hrs.; for remaining at 4 h, 2 μm: pH 7.8, 4 hrs, read-out: Intact Peptide Remaining (%) 4 hrs.; for remaining at 8 h, 2 μm: pH 7.8, 8 hrs, read-out: Intact Peptide Remaining (%) 8 hrs.; for resistance to DPP-IV degradation: words, up to 8 hours incubation
DPP-IV, sequence (P27487 whole entry, species assumed): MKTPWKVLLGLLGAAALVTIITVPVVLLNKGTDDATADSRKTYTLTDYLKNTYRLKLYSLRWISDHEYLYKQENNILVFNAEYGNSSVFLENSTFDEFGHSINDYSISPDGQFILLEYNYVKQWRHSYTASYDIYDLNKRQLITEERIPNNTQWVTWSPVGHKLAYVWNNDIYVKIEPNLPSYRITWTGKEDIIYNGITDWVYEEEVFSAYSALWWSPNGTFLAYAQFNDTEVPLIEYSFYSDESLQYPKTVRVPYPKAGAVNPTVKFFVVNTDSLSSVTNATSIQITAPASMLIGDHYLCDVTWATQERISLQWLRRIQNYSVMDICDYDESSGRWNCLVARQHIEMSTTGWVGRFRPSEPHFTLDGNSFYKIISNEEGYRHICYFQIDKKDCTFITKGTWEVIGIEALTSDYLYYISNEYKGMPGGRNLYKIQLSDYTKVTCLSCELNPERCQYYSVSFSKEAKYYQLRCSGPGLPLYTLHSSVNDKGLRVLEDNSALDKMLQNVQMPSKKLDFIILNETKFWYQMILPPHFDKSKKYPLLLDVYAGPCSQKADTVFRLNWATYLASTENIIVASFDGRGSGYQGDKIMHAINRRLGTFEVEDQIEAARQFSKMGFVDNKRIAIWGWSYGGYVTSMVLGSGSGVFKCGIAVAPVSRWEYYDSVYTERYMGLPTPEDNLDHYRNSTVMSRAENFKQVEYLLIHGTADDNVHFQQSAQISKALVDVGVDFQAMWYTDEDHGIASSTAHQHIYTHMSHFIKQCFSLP

[2] = test system: BRIN-BD11 cells; assay: Insulin secretion from BRIN-BD11 cells; assay type: cell-based; details: for Maximal insulin response (% GIP max) / Insulin response in presence of 10^-7 M GIP (% GIP max): 5.6 mm glucose; for Maximal insulin response (% GIP max): 20 min; for Insulin response in presence of 10^-7 M GIP (% GIP max): in presence of 10^-7 M native GIP; for effect on GIP-stimulated insulin secretion: in presence of GIP (10^-7 m)
Procedure: (§1) Tissue Culture. Chinese Hamster Lung (CHL) fibroblast cells stably transfected with the human GIP-R were cultured in DMEM tissue culture medium containing 10%. (v/v) fetal bovine serum, 1% (v/v) antibiotics (100 U/ml penicillin, 0.1 mg/ml streptomycin) (all from Gibco, Paisley, Strathclyde, Scotland). BRIN-BD11 cells were cultured in RPMI-1640 tissue culture medium containing 10% (v/v) fetal bovine serum, 1% (v/v) antibiotics (100 U/ml penicillin, 0.1 mg/ml streptomycin) and 11.1 mm glucose. The origin and secretory characteristics of these cells have been described in detail previously (McClenaghan, N. H. et al., 1996, Diabetes 45:1132-1140). The cells were maintained in sterile tissue culture flasks (Corning Glass Works, Sunderland, UK) at 37° C. in an atmosphere of 5% CO2 and 95% air using a LEEC incubator (Laboratory Technical Engineering, Nottingham, UK).
Methods. Insulin release from BRIN-BD11 cells was determined by use of cell monolayers as described previously (Gault, V. A. et al. 2002, Biochem. J. 367:913-920). In brief, BRIN-BD11 cells were seeded into 24-well plates (Nunc, Roskilde, Denmark) at a density of 1.5×10^5 cells per well and allowed to attach overnight in RPMI-1640 culture medium at 37° C. Acute tests for insulin secretion were preceded by 40 minutes pre-incubation at 37° C. in 1.0 ml Krebs Ringer Bicarbonate Buffer (KRBB, 115 mm NaCl, 4.7 mm KCl, 1.28 mm CaCl2, 1.2 mM MgSO4, 1.2 mm KH2PO4, 25 mM HEPES and 10 mm NaHCO3; pH 7.4 with NaOH) supplemented with 0.1% (w/v) BSA and 1.1 mM glucose. […] After 20 minutes incubation, the buffer was removed and used for measurement of insulin by radioimmunoassay (Flatt, P. R. and Bailey, C. J., 1981, Diabetologia 5:573-577).

[3] = test system: ob/ob mice; assay: Acute antihyperglycaemic and insulin releasing activity with glucose and native GIP in ob/ob mice; assay type: in vivo, mouse; details: for plasma glucose and insulin profiles when administered together with native GIP: 25 nmol/kg i.p. with GIP and glucose 18 mmol/kg, vs native GIP
Procedure: Animals. Obese diabetic (ob/ob) mice derived from the colony maintained at Aston University, UK (Bailey C. J. et al., 1982, Int. J. Obes. 6:11-21) were used at 14-18 weeks of age. Animals were age-matched, divided into groups and housed individually in an air-conditioned room at 22±2° C. with a 12 hour light: 12 hour dark cycle (08:00-20:00 hr). Drinking water and a standard rodent maintenance diet (Trouw Nutrition, Cheshire, UK) were freely available. All animal experiments were carried out in accordance with the UK Animals (Scientific Procedures) Act 1986.
Biochemical analysis. Plasma glucose was assayed by an automated glucose oxidase procedure ([…]) using a Beckman Glucose Analyzer II (Beckman Instruments, Galway, Ireland). Plasma insulin was assayed by radioimmunoassay.
Methods. […] All test solutions were administered in a final volume of 5 ml/kg body weight. Blood samples were collected from the cut tip of the tail vein of conscious mice into chilled fluoride/heparin coated glucose microcentrifuge tubes (Sarstedt, Numbrecht, Germany) immediately prior to injection and at 15, 30 and 60 minutes post injection. Blood samples were immediately centrifuged using a Beckmnan microcentrifuge (Beckman Instruments, High Wycombe, Buckinghamshire, UK) for 30 seconds at 13,000×g. Plasma glucose was assayed using a Beckman Glucose Analyzer n (Beckman Instruments, High Wycombe, Buckinghamshire, UK) (Stevens, J. F., 1971, Clin. Chim. Acta 32:199-201) and plasma insulin was determined by RIA (Flatt, P. R. and Bailey, C. J., 1981, Diabetologia 5:573-577). All animal studies were carried out in accordance with the UK Animals (Scientific Procedures) Act 1986.

[4] = target: T1, human GIP-R (Homo sapiens, UniProt P48546); assay: Cyclic AMP production in GIP-R transfected CHL cells; assay type: cell-based; details: for remaining activity at 0.1 µM: CHL, read-out: cAMP response in presence of 10^-7 M GIP (% GIP max); for inhibition of GIP-stimulated cAMP production: in presence of GIP (10^-7 m)
T1 construct: expressed in transfected cells; host or cells: Chinese Hamster Lung (CHL) fibroblast cells, stably transfected
T1 sequence (P48546 22-466): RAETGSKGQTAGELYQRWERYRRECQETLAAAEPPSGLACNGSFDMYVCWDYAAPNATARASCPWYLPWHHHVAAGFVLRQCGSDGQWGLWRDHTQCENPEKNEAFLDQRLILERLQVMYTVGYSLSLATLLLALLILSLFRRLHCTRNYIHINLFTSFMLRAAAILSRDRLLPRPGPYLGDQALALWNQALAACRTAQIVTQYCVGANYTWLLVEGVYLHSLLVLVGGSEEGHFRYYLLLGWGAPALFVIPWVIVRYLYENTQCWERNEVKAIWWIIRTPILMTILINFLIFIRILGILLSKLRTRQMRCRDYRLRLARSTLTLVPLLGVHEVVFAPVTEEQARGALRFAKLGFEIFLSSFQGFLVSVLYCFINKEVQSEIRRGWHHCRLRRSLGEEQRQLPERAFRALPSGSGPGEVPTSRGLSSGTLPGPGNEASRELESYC
Procedure: as §1, with “Chinese Hamster Lung (CHL) fibroblast cells stably transfected with the human GIP-R were cultured in DMEM tissue culture medium containing 10%.” left out
Methods. […] The culture medium was removed and cells subsequently washed twice with 2 ml ice-cold HBS buffer (130 mm NaCl, 20 mm HEPES, 0.9 mm NaHPO4, 0.8 mm MgSO4, 5.4 mm KCl, 1.8 mm CaCl2, 5.6 mm glucose and 25 μm phenol red) (pH 7.4). […] The medium was subsequently removed and the cells lysed with […] of lysing solution (5% TCA, 3% SDS, 92% H2O, also containing 0.1 mm unlabelled cAMP and 0.1 mm unlabelled ATP) (Sigma, Poole, Dorset, UK). The plates were then left on a shaker at room temperature for 30 minutes and tritiated cAMP formation determined by column chromatography using Dowex and alumina ion exchange columns (BioRad Life Science Research, Alpha Analytical, Larne, UK) as previously described (Gault, V. A. et al 2002, Biochem. J. 367:913-920).

| Compound | half-life at 2 μm [1] [h] | Intact Peptide Remaining (%) 0 hrs. [1] [%] | remaining at 2 h, 2 μm [1] [%] | remaining at 4 h, 2 μm [1] [%] | remaining at 8 h, 2 μm [1] [%] | resistance to DPP-IV degradation [1] | Maximal insulin response (% GIP max) ([2]; BRIN-BD11 cells) | Insulin response in presence of 10^-7 M GIP (% GIP max) ([2]; BRIN-BD11 cells) | glycaemic excursion and insulin response ([3]; compared with i.p. glucose alone) | EC50 [4] [nM] | remaining activity at 0.1 µM [4] [%] | inhibition of GIP-stimulated cAMP production [4] | effect on GIP-stimulated insulin secretion [2] | plasma glucose and insulin profiles when administered together with native GIP [3] | stimulation of insulin secretion compared with control incubations ([2]; BRIN-BD11 cells, vs 5.6 mm glucose alone) [fold] |
| --- | --- | --- | --- | --- | --- | --- | --- | --- | --- | --- | --- | --- | --- | --- | --- |
| CC[C@H](C)[C@H](NC(=O)[C@H](CO)NC(=O)[C@H](Cc1ccc(O)cc1)NC(=O)[C@H](CC(=O)O)NC(=O)[C@H](CO)NC(=O)[C@@H](NC(=O)[C@H](Cc1ccccc1)NC(=O)[C@@H](NC(=O)CNC(=O)[C@H](CCC(=O)O)NC(=O)[C@H](C)NC(=O)[C@@H](N)Cc1ccc(O)cc1)[C@@H](C)O)[C@@H](C)CC)C(=O)N[C@@H](C)C(=O)N[C@@H](CCSC)C(=O)N[C@@H](CC(=O)O)C(=O)N[C@@H](CCCCN)C(=O)N[C@H](C(=O)N[C@@H](Cc1c[nH]cn1)C(=O)N[C@@H](CCC(N)=O)C(=O)N[C@@H](CCC(N)=O)C(=O)N[C@@H](CC(=O)O)C(=O)N[C@@H](Cc1ccccc1)C(=O)N[C@H](C(=O)N[C@@H](CC(N)=O)C(=O)N[C@@H](Cc1c[nH]c2ccccc12)C(=O)N[C@@H](CC(C)C)C(=O)N[C@@H](CC(C)C)C(=O)N[C@@H](C)C(=O)N[C@@H](CCC(N)=O)C(=O)N[C@@H](CCCCN)C(=O)NCC(=O)N[C@@H](CCCCN)C(=O)N[C@@H](CCCCN)C(=O)N[C@@H](CC(N)=O)C(=O)N[C@@H](CC(=O)O)C(=O)N[C@@H](Cc1c[nH]c2ccccc12)C(=O)N[C@@H](CCCCN)C(=O)N[C@@H](Cc1c[nH]cn1)C(=O)N[C@@H](CC(N)=O)C(=O)N[C@H](C(=O)N[C@H](C(=O)N[C@@H](CCC(N)=O)C(=O)O)[C@@H](C)O)[C@@H](C)CC)C(C)C)[C@@H](C)CC [GIP, reference compound] | 1.3 | 100 | 20.9 ± 1.6 | 4.9 ± 1.2 | 0 | complete degradation by 8 hours | 100 | 100 | decreased the glycaemic excursion and enhanced insulin response |  |  |  |  |  |  |
| YAWGTFISDYSIAMDKIHQQDFVNWLLAQKGKKNDWKHNITQ [(Trp^3)GIP] | 1.3 | 100 | 22.5 ± 1.7 | 4.7 ± 2.4 | 0 |  | 73 ± 2 | 100 ± 5 |  | 3 | 78 ± 2 | did not significantly inhibit | did not significantly affect | did not significantly alter |  |
| YAKGTFISDYSIAMDKIHQQDFVNWLLAQKGKKNDWKHNITQ [(Lys^3)GIP] | 1.7 | 100 | 41.4 ± 0.3 | 14.9 ± 1.1 | 0 | significantly more resistant | 78 ± 3 | 78 ± 4 |  | 2.6 | 63.5 ± 4 | significantly inhibited | significantly inhibited | did not significantly alter |  |
| YAAGTFISDYSIAMDKIHQQDFVNWLLAQKGKKNDWKHNITQ [(Ala^3)GIP] | 1.1 | 100 | 5.9 ± 1.7 | 2.7 ± 0.1 | 0 | least resistant | 111 ± 6 | 115 ± 3 |  | 2.3 | 88 ± 3 | did not significantly inhibit | did not significantly affect | significantly inhibited the action of GIP | 1.7 |
| YAFGTFISDYSIAMDKIHQQDFVNWLLAQKGKKNDWKHNITQ [(Phe^3)GIP] | 1.2 | 100 | 15 ± 5.2 | 2.5 ± 0.1 | 0 |  | 75 ± 3 | 73 ± 3 |  | 1 | 62 ± 3 | significantly inhibited | significantly inhibited | significantly inhibited the action of GIP |  |

From patent US20090170762A1, “Treatment of Diabetes Related Obesity” (UUTech Limited, priority 2005, published 2009)
